In ChEMBL document CHEMBL1201862, “PubChem BioAssay data set” (2004):
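Cultured in 96-well plates, cells were exposed to test compound for 48 hours across five concentrations. Here, GI50 denotes the concentration required for 50% inhibition of growth.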 Activity calls are given as the source filed them. Cut-off read from the data, not from the text of the source: active = GI50 up to about 1.1 µM and inactive = higher.

Assays:
Assay in all cases: NCI-60 cell line screen, 48 h
COLO 205 = tested on: COLO 205
DMS-114 = tested on: DMS-114
HOP-62 = tested on: HOP-62
SK-MEL-5 = tested on: SK-MEL-5
HOP-92 = tested on: HOP-92
OVCAR-8 = tested on: OVCAR-8
UO-31 = tested on: UO-31
SF-539 = tested on: SF-539
ACHN = tested on: ACHN
NCI-H226 = tested on: NCI-H226
HL-60 = tested on: HL-60
SNB-19 = tested on: SNB-19
SNB-75 = tested on: SNB-75
SW-620 = tested on: SW-620
U-251 = tested on: U-251
786-0 = tested on: 786-0
NCI-H522 = tested on: NCI-H522

Measured: GI50

Cc1cc(O)cc2oc(=O)c3c(O)cc(O)cc3c12 [ALTERNARIOL]
inactive: COLO 205 27.4 µM | DMS-114 34.4 µM | HOP-62 20.7 µM | SK-MEL-5 18.5 µM | HOP-92 30.5 µM | OVCAR-8 43.2 µM | UO-31 34.6 µM | SF-539 17 µM | ACHN 14.1 µM | NCI-H226 19.5 µM | HL-60 16.4 µM | SNB-19 20 µM | SNB-75 12.7 µM | SW-620 16.2 µM | U-251 28.5 µM | 786-0 28.6 µM | NCI-H522 13.4 µM
